Experimental data: patent US7759459B2, “Fluorescent assays for protein kinases” (Albert Einstein College of Medicine of Yeshiva University, priority 2003, dated 2010)
Numbered stars: 1 amine (or outer) side, 2 acyl side, 3 side chain; on linkers, the order of the positions; unused ones are H or OH. Square brackets hold non-standard residues; d marks the D form. Peptide text beside a SMILES is read from it. * marks the point of attachment. X2 = O=C(O)CN(CC(=O)O)c1ccc(-c2c3cc(F)c(=O)cc-3oc3cc(O)c(F)cc23)cc1OCC(=O)*; X1 = O=C([C@H](CO)N(c1ccc([N+](=O)[O-])c2nonc12)[*:1])[*:2]; Acridine9carbonyl = O=C(c1c2ccccc2nc2ccccc12)*; Dansyl = CN(C)c1cccc2c(S(=O)(=O)*)cccc12; Cysteamide = C(CS[*:3])N[*:1]; Sar = CNCC(=O)O

Each compound was assayed on protein kinase C (assay: Screen of fluorophore-peptide library for fluorescence change in the presence of PKC and ATP). Conditions: Table 3 library.
Assay type: biochemical
Description: (§1) Fluorescent PKC assay-Fluorescence assays were performed in triplicate at 30° C. and initiated by addition of ATP to a 100 μL cuvette containing a 50 μL solution of PKC and peptide substrate 2. Final conditions: 62.5 mM HEPES pH 7.4, 3 mM MgCl2, 0.3 mM CaCl2, 0.1 mM EGTA, 1 mM DTT, 0.5 μg/mL phosphatidylserine, 0.1 μg/mL diacylglycerol, 1 mM ATP, and 13 nM PKC. After the addition of ATP, the solution was gently mixed and the time-dependent change in fluorescent intensity (excitation: 520 nm, emission: […]) continuously monitored with a Photon Technology QM-1 spectrofluorimeter.
The peptide H2N-Ser-Phe-Arg-Arg-Arg-Arg-Lys-amide (1) (SEQ ID NO:2) was prepared using an Fmoc-based protocol, spatially segregated, and the free N-terminal amine subsequently modified with an array of fluorophore-containing carboxylic acids (I), aromatic aldehydes (II), and electron deficient aryl halides (III). […] This spatially segregated fluorophore-substituted peptide-based library contains a total of 415 distinct chemical entities (Table 3) and was screened for changes in fluorescence intensity in the presence of PKC and ATP under activating conditions. […] The obvious explanation is that phosphorylation of the peptide fails to induce the desired change in photophysical properties of the appended fluorophore. However, it is also possible that introduction of fluorophores, at various sites along the peptide framework, interferes with PKC-catalyzed phosphorylation. The latter possibility is unlikely, particularly for simple N-monosubstituted peptides, since PKC will phosphorylate peptides containing a wide variety of structurally diverse functionality attached at and/or near the phosphorylatable serine moiety.^24 Nevertheless, a few representative members of the library were evaluated in depth (Table 1). […]. One explanation for the poor fluorescence response of these particular peptides to PKC/ATP could be that these peptides serve as poor PKC substrates. This possibility was addressed by obtaining the PKCα-catalyzed Km and Vmax values using the [γ-^32P]ATP radioactive method.^25 As is clear from Table 1, all five peptides are reasonably effective substrates for PKCα.
Table 3. Structures of 415 compounds tested. The % change observed in fluorescence intensity upon phosphorylation of the compound by protein kinase C is shown in the right column. […] The compound labeled as compound 21 in Table 3 is the same as compound 2 in Example I, which is also shown in Scheme 2.

% change observed in fluorescence intensity upon phosphorylation of the compound by protein kinase C [%] | Compound
<10 | N#CC1=c2cc3ccccc3cc2=CC1C(=N)NC(O)C(=O)NC(C(=O)NC(NC(=N)N)C(=O)NC(NC(=N)N)C(=O)NC(NC(=N)N)C(=O)NC(NC(=N)N)C(=O)NC(N)C(N)=O)c1ccccc1 (stereo not shown) [Compound 86]
<10 | N=C(N)NC(NC(=O)C(NC(=N)N)NC(=O)C(NC(=N)N)NC(=O)C(NC(=N)N)NC(=O)C(NC(=O)C(O)N1C=C(c2ccccc2)C(=O)C1(O)c1ccccc1C(=O)O)c1ccccc1)C(=O)NC(N)C(N)=O (stereo not shown) [Compound 78]
<10 | N=C(N)NC(NC(=O)C(NC(=N)N)NC(=O)C(NC(=N)N)NC(=O)C(NC(=N)N)NC(=O)C(NC(=O)C(O)NC(=O)C(CO)C1C=c2cc3ccccc3cc2=C1NN)c1ccccc1)C(=O)NC(N)C(N)=O (stereo not shown) [Compound 88]
<10 | N=C(N)NC1=c2cc3ccccc3cc2=CC1C(CO)C(=O)NC(O)C(=O)NC(C(=O)NC(NC(=N)N)C(=O)NC(NC(=N)N)C(=O)NC(NC(=N)N)C(=O)NC(NC(=N)N)C(=O)NC(N)C(N)=O)c1ccccc1 (stereo not shown) [Compound 89]
<10 | N=C(N)NNC1=c2cc3ccccc3cc2=CC1C(CO)C(=O)NC(C(=O)NC(NC(=N)N)C(=O)NC(NC(=N)N)C(=O)NC(NC(=N)N)C(=O)NC(NC(=N)N)C(=O)NC(N)C(N)=O)c1ccccc1 (stereo not shown) [Compound 92]
<10 | N=C(N)NC(NC(=O)C(NC(=N)N)NC(=O)C(NC(=N)N)NC(=O)C(NC(=N)N)NC(=O)C(NC(=O)C(O)NC(=N)Nc1ccc(NOO)c2nonc12)c1ccccc1)C(=O)NC(N)C(N)=O (stereo not shown) [Compound 87]
<10 | N#CC1=c2cc3ccccc3cc2=CC1C(CO)C(=O)NC(O)C(=O)NC(C(=O)NC(NC(=N)N)C(=O)NC(NC(=N)N)C(=O)NC(NC(=N)N)C(=O)NC(NC(=N)N)C(=O)NC(N)C(N)=O)c1ccccc1 (stereo not shown) [Compound 90]
<10 | N=C(N)NC(NC(=O)C(NC(=N)N)NC(=O)C(NC(=N)N)NC(=O)C(NC(=N)N)NC(=O)C(NC(=O)Cc1cc(=O)oc2cc(O)ccc12)NC(=O)C(O)Nc1ccc([N+](=O)[O-])c2nonc12)C(N)=O (stereo not shown) [Compound 75]
<10 | N=C(N)NC(NC(=O)C(NC(=N)N)NC(=O)C(NC(=N)N)NC(=O)C(NC(=N)N)NC(=O)C(NC(=O)C(O)NC(=O)C(CO)C1C=c2cc3ccccc3cc2=C1SC(=N)N)c1ccccc1)C(=O)NC(N)C(N)=O (stereo not shown) [Compound 91]
<10 | CCCCCC(=O)NCCCCC(CNS(=O)(=O)c1cccc2c(N(C)C)cccc12)NC(O)C(=O)NC(C(=O)NC(NC(=N)N)C(=O)NC(NC(=N)N)C(=O)NC(NC(=N)N)C(=O)NC(NC(=N)N)C(=O)NC(N)C(N)=O)c1ccccc1 (stereo not shown) [Compound 81]
<10 | N=C(N)NC(NC(=O)C(NC(=N)N)NC(=O)C(NC(=N)N)NC(=O)C(NC(=N)N)NC(=O)C(NC(=O)C(O)Nc1ccc(N)cc1)c1ccccc1)C(=O)NC(N)C(N)=O (stereo not shown) [Compound 76]
<10 | CN(C)c1cccc2c(S(=O)(=O)NC(=N)NC(O)C(=O)NC(C(=O)NC(NC(=N)N)C(=O)NC(NC(=N)N)C(=O)NC(NC(=N)N)C(=O)NC(NC(=N)N)C(=O)NC(N)C(N)=O)c3ccccc3)cccc12 (stereo not shown) [Compound 85]
<10 | COCCN(CCOC)C1=c2cc3ccccc3cc2=CC1C(CO)C(=O)NC(C(=O)NC(NC(=N)N)C(=O)NC(NC(=N)N)C(=O)NC(NC(=N)N)C(=O)NC(NC(=N)N)C(=O)NC(N)C(N)=O)c1ccccc1 (stereo not shown) [Compound 93]
<10 | CCCCCCCCCC(=O)NCCCCC(CNS(=O)(=O)c1cccc2c(N(C)C)cccc12)NC(O)C(=O)NC(C(=O)NC(NC(=N)N)C(=O)NC(NC(=N)N)C(=O)NC(NC(=N)N)C(=O)NC(NC(=N)N)C(=O)NC(N)C(N)=O)c1ccccc1 (stereo not shown) [Compound 82]
<10 | N=C(N)NC(NC(=O)C(NC(=N)N)NC(=O)C(NC(=N)N)NC(=O)C(NC(=N)N)NC(=O)C(NC(=O)c1ccc2c3c4c(ccc13)C=CCC4=CC2)NC(=O)C(O)Nc1ccc([N+](=O)[O-])c2nonc12)C(N)=O (stereo not shown) [Compound 73]

Compound | % change observed in fluorescence intensity upon phosphorylation of the compound by protein kinase C [%]
N=C(N)NC(NC(=O)C(NC(=N)N)NC(=O)C(NC(=N)N)NC(=O)C(NC(=N)N)NC(=O)C(NC(=O)C(O)/N=C/c1cc([N+](=O)[O-])cc([N+](=O)[O-])c1O)c1ccccc1)C(=O)NC(N)C(N)=O (stereo not shown) [Compound 55] | <10
N=C(N)NC(NC(=O)C(NC(=N)N)NC(=O)C(NC(=N)N)NC(=O)C(NC(=N)N)NC(=O)C(NC(=O)C(O)N=C1N=c2c(c3ccccc3c3ccccc23)=N1)c1ccccc1)C(=O)NC(N)C(N)=O (stereo not shown) [Compound 77] | <10

These compounds were tested against T1, PKCα (Homo sapiens, UniProt P17252) (assay: Radioactive PKC assay ([γ-32P]ATP)). Conditions: Table 2.
Assay type: biochemical
Description: Radioactive PKC Assay—Radioactive assays were performed in duplicate at 30° C. The final assay volume totaled 40 μl and contained 62.5 mM HEPES (pH 7.4), 0.75 mM CaCl2, 12.5 mM MgCl2, 1 mM dithiothreitol, 0.5 mM EGTA, 7.5 μg/mL phosphatidylserine, 1.6 μg/mL diacylglycerol, and 10 ng of PKC. […] Phosphorylation reactions were initiated by the addition of 10 μL of PKC from a stock solution (20 mM Tris-HCl at pH 7.5, 1 mM dithiothreitol, 1 mM EDTA, and 0.75 mg/mL bovine serum albumin) into 30 μL of assay buffer containing peptide substrate. Reactions were terminated after 5 min by spotting 25 μL aliquots onto phosphocellulose paper disks (2.1 cm in diameter). After 10 s, the disks were immersed in 10% glacial acetic acid and soaked with occasional stirring for at least 1 h. The acetic acid was decanted and the disks were collectively washed with four volumes of 0.5% H3PO4, 1 volume of water, followed by a final acetone rinse. The disks were air dried and then counted in a Beckman LS scintillation counter.

Compound | Km [µM] | kcat [s⁻¹]
H2N-Ser-Phe-Arg4-Lys(NBD)-amide [peptide 3] | 19 ± 1 | 3.5 ± 0.167

The compounds below were run against T1, PKCα (assay: Fluorescent PKC assay (spectrofluorimetry)). Conditions: PKC/ATP; fluorescence assay.
Assay type: biochemical
Description: as §1

Compound | fluorescence intensity change following phosphorylation (in words)
H2N-Ser-Phe-Arg4-Lys(NBD)-amide [peptide 3] | No Fluorescence Intensity Change

Same assay, conditions: PKCα-catalyzed phosphorylation; spectrofluorimetry

Fluorescence enhancement upon phosphorylation (% Change) [%] | Compound
20 | CN(C)c1cccc2c(S(=O)(=O)N[C@@H](CO)C(=O)N[C@@H](Cc3ccccc3)C(=O)N[C@@H](CCCNC(=N)N)C(=O)N[C@@H](CCCNC(=N)N)C(=O)N[C@@H](CCCNC(=N)N)C(=O)N[C@@H](CCCNC(=N)N)C(=O)N[C@@H](CCCCN)C(N)=O)cccc12 (Dansyl-SFRRRRK-NH2)
150 | N=C(N)NCCC[C@H](NC(=O)[C@H](CCCNC(=N)N)NC(=O)[C@H](CCCNC(=N)N)NC(=O)[C@H](CCCNC(=N)N)NC(=O)[C@H](Cc1ccccc1)NC(=O)[C@H](CO)Nc1ccc([N+](=O)[O-])c2nonc12)C(=O)N[C@@H](CCCCN)C(N)=O (H-[X1]FRRRRK-NH2)

Compound | Fluorescence enhancement upon phosphorylation (% Change) [%]
N=C(N)NCCC[C@H](NC(=O)[C@H](CCCNC(=N)N)NC(=O)[C@H](CCCNC(=N)N)NC(=O)[C@H](CCCNC(=N)N)NC(=O)[C@H](Cc1ccccc1)NC(=O)[C@H](CO)NC(=O)c1c2ccccc2nc2ccccc12)C(=O)N[C@@H](CCCCN)C(N)=O (Acridine9carbonyl-SFRRRRK-NH2) | 20

Each compound was assayed against T1, PKCα (assay: Protein kinase C assay (Example II)). Conditions: PKC-catalyzed phosphorylation.
Assay type: biochemical
Description: Protein kinase C assay. The kinase-catalyzed reaction was performed in triplicate at 30° C. and initiated by addition of ATP to a solution of PKCα and fluorophore-appended peptide substrate 23 (except in the case of the library, where the assays were performed in a 96 well plate using a fluorescence plate reader). Final conditions: 62.5 mM HEPES, 3 mM MgCl2, 0.3 mM CaCl2, 0.1 mM EGTA, 1 mM DTT, 0.5 μg/mL phosphatidylserine, 0.1 μg/mL diacylglycerol, 1 mM ATP, and 13 nM PKCα (pH 7.4). After the addition of ATP, the solution was gently mixed and the time-dependent change in fluorescent intensity (λexcitation=[…]; λemission=521 nm) continuously monitored with a Photon Technology QM-1 spectrofluorimeter.

Km [µM] | Vmax [µmol/min/mg] | Compound
23.5 | 1.0 | D-proline
63 | 1.9 | L-proline

Same assay, conditions: upon PKC-catalyzed phosphorylation

% Change Fluorescence [%] | Compound
156 | D-proline
264 | CN(CC(=O)N[C@@H](CO)C(=O)N[C@@H](Cc1ccccc1)C(=O)N[C@@H](CCCNC(=N)N)C(=O)N[C@@H](CCCNC(=N)N)C(=O)N[C@@H](CCCNC(=N)N)C(=O)N[C@@H](CCCNC(=N)N)C(=O)NCCS)C(=O)COc1cc(-c2c3cc(F)c(=O)cc-3oc3cc(O)c(F)cc23)ccc1N(CC(=O)O)CC(=O)O [N-Me glycine] (X2-[Sar]SFRRRR-Cysteamide)
150 | L-proline

Compound | % Change Fluorescence [%]
CNCC(=O)O [N-methyl glycine] | 264
